The source of these data is patent US20140378408A1, “NUCLEOSIDE 5'-PHOSPHOROTHIOATE ANALOGUES AND USES THEREOF” (BAR-ILAN UNIVERSITY, an Israeli University, priority 2012, published 2014).

Series [1] deals with cortical neurons. Description: Neuroprotection of cultured cortical neurons exposed to FeSO4 or FeSO4/H2O2. Format: cell-based. As to conditions: for protection: co-application with FeSO4 3 μM. Here is the method: FIGS. 10A-10B show the neuroprotective effect of ATP-γ-S and GDP-β-S (0.2-200 μM, t=24 h) as evaluated by MTT production in cortical neurons exposed for 24 h to either FeSO4 at final concentration of 3 μM (10A); or both FeSO4 (3 μM) and H2O2 (100 μM) (10B). The results shown are the mean±SEM of three independent experiments in quadruplicate.
Cultured cortical neurons in 96-well plates were treated with different concentrations of FeSO4, or hydrogen peroxide and FeSO4, for 24 h at 37° C. Following exposure to various insults, the cells were treated with ATP-γ-S and GDP-β-S as described. Cells were subsequently incubated for a further 18-24 h as indicated before being assessed for viability measures. Neurons were treated with ATP-γ-S and GDP-β-S at three concentrations ([…]) simultaneously with 1.5, 3 or 6 μM FeSO4 for 24 h. Following 24 h incubation in the presence of both FeSO4 and ATP-γ-S and GDP-β-S cell viability measures were assessed by XTT assay. All experiments were performed in triplicate.
FeSO4 induced a concentration-dependent decrease in cell viability as assessed by XTT assay and morphological assessment following 24 h of exposure (FIG. 9). The neuroprotective effect of ATP-γ-S and GDP-β-S (due to iron chelation) was evaluated in cortical neurons exposed to FeSO4 for 24 h (FIG. 10).

The target in series [2] is T1, TNAP (Homo sapiens, UniProt P05186).
T1 sequence (P05186 18-501): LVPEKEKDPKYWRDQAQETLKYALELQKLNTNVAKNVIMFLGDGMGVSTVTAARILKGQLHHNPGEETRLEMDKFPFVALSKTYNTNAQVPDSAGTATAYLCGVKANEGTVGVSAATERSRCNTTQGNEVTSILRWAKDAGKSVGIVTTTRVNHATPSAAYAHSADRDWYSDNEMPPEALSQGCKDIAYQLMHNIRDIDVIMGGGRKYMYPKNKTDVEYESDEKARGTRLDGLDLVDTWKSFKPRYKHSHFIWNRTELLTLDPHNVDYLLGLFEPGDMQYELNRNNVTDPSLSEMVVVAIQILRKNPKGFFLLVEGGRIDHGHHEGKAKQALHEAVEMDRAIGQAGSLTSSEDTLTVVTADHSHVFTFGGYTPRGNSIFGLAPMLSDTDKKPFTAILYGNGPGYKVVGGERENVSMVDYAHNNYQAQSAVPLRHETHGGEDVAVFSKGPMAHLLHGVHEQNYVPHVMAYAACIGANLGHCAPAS
Description: Hydrolysis by TNAP. Format: in vitro ADME. To be noted: 1 h. An excerpt: The metabolic stability of APPCCl2P-α-S (isomer A) and APCPP-γ-S was further proven by their resistance to enzymatic hydrolysis by TNAP.

The conditions of series [3]: literature; cited from earlier work.
The test system of series [4] is primary neurons. Description: Protection of primary neuron culture against Aβ42 insult (trypan blue count). Format: cell-based. The protocol: Primary neuron cells were cultured in 96 wells plate (95×10^4 per well). After 24 h the cells were treated with 50 μM Aβ42 and various concentrations of APCPP-γ-S (0.04-25 μM) for 48 h. Cell viability was measured by dyeing the cells with trypan blue and counts of the vital cells. The results shown are the mean±S.D of three independent experiments in triplicate (*P<0.05, vs. Aβ42 treatment).
Primary neurons cells were cultured in 96 wells plate (95×10^4 per well). […] Cell viability was measured by dyeing the cells with trypan blue and counts the vital cells. The results shown are the mean±S.D of three independent experiments in triplicate (*P<0.05, **P<0.01 vs. Aβ42 treatment).
In this study, the neuroprotective activity of APCPP-γ-S in neuronal cells exposed to toxic Aβ42 was evaluated. At first we measured the number of the viable neuronal cells after treatment with Aβ42 (5-50 μM) (FIG. 11). At 50 μM Aβ42, 50% of the neuronal culture remained vital. Next, we measured the protective effect of APCPP-γ-S: primary neurons were treated with APCPP-γ-S (0.04-25 μM) and 50 μM Aβ42 for 48 h.

Series [5] concerns the target T2, Aβ28-Cu^+ complex (Homo sapiens, UniProt P05067).
T2 construct: we first studied Aβ28, as a more soluble fragment of Aβ40; purchased Sigma-Aldrich
Briefly: Titration of Aβ28-Cu^+ complex by chelators monitored by 1H-NMR. As to conditions: 6 eq chelator, 0.8 mM Aβ28-Cu^+, pD 7.

The target in series [6] is T3, Aβ40-Zn^2+ aggregates (Homo sapiens, UniProt P05067).
T3 construct: Monomeric Aβ40 was incubated with either Cu^2+ or Zn^2+; purchased GL-Biochem (Shanghai)
Briefly: DLS, re-solubilization of Aβ40-Zn^2+ aggregates. To be noted: EDTA = 100%, clioquinol value refers to FIG. 5B, 5C.

Series [7] concerns the target T4, Aβ40-Cu^2+ aggregates (Homo sapiens, UniProt P05067).
T4 construct: purchased GL-Biochem (Shanghai)
Briefly: DLS, size reduction of Aβ40-Cu^2+ aggregates. As to conditions: aggregate alone 1836 nm; 25 μM Aβ40-Cu^2+, pH 6.6. Here is the method:
PBS buffer, Aβ40, chelator, Zn(NO3)2, and Cu(NO3)2 solutions were filtered through a […] PVDF syringe filter. 496 μM Aβ40 solution in 10 mM PBS (pH 7.4) and 2 mM Zn(NO3)2 solution were mixed to obtain 200 μM Aβ40-Zn^2+ (1:1 ratio) of a cloudy solution. Similarly, 2 mM Cu(NO3)2 solution was added to 496 μM Aβ40 in 10 mM PBS (pH 6.6). Aβ40-Zn^2+/Cu^2+ (10 μl) solution was transferred to Eppendorf tubes containing 10 mM PBS buffer (64 or 67 μl) followed by the addition of 3 and 6 eq of 2 mM nucleotide (6 or 3 μl) solution and incubation for 45 min at RT. The resulting mixture was incubated for another 30 min at RT and DLS data were then collected in a 70 μl disposable cuvette. The final sample concentrations were 25 μM Aβ40, 25 μM Zn^2+ or Cu^2+, and 150 or 75 μM nucleotide.
Monomeric Aβ40 was incubated with either Cu^2+ or Zn^2+ for 45 min to form a 1:1 peptide metal-ion complex. […] For the Aβ40-Zn^2+ particles the instrument readings indicated a different size distribution. […] We evaluated the capacity of the phosphorothioate analogues to dissolve Aβ40-Cu^2+ or Zn^2+ aggregates, as compared to EDTA and clioquinol known for their ability to dissolve Aβ-M^2+ aggregates (Ritchie et al., 2003; Huang et al., 1997). The reduction of dH of Aβ40-Cu^2+ aggregates by EDTA, clioquinol, or tested compounds was compared to the dH of Aβ-Cu^2+ aggregate itself (FIG. 5A). In addition, the efficacy of the chelators ATP-γ-S, ADP-β-S, APCPP-γ-S and GDP-β-S to resolubilize Aβ40-Cu^2+ and Aβ40-Zn^2+ is described in FIGS. 5B and 5C relative to EDTA and clioquinol. EDTA efficiency in reducing Aβ particle size is considered as 100%.

In series [8] the test system is PC12 cells. Briefly: Inhibition of Fe(II)-induced ROS formation in PC12 cells (DCFH-DA). Format: cell-based. As to conditions: PC12 cells, FeSO4 0.16 μM, 1 h, DCFH-DA; read-out: IC50 inhibition of ROS formation. Here is the method: In this study, nucleoside 5′-phosphorothioate analogues were explored as inhibitors of Fe(II)-induced oxidative stress in PC12 cells used as a neuronal model. Reduction of ROS production in PC12 cells by each one of the tested analogues was measured by DCFH-DA, a radical sensitive indicator. After DCFH-DA was removed, the tested analogue was added to the cells at a final concentration of 0.2-200 μM. Oxidation was initiated by the addition of FeSO4 (0.16 μM) to the wells. The plates were incubated for 1 h at 37° C., during which the absorbance was read by a Tecan fluorometer at 485/530 nm.

The conditions of series [9]: OH radical inhibition, Fe^2+/H2O2 system, earlier work; cited from earlier work.
Series [10] concerns PC12 cells. Description: Stability of nucleotides in PC12 cells.
Series [11] can be described thus: ESR OH radical assay, Cu^+/H2O2 Fenton system. As to conditions: N/A = minimal radical production exceeds 10%.
The nature of series [12]: ESR OH radical assay, Fe^2+/H2O2 Fenton system. To be noted: N/A = minimal radical production exceeds 10%.
For series [13] the following is noted: literature; cited from earlier work. This is another data set of the same source.
Setting [14] is: Table 2, neuroprotection of primary neurons exposed to FeSO4, read-out: IC50.
Setting [15] is: co-application of FeSO4 3 μM and H2O2 100 μM, read-out: IC50 neuroprotection.
Setting [16] is: cortical neurons, FeSO4 3 μM, 24 h, read-out: IC50 neuroprotection.

As usually defined, the IC90 is the concentration needed for an effect of 90%. Low values mean an effect from little substance, high ones a need for much substance.

Read-outs that look alike come from different tables or passages of the source.

T2 sequence (P05067 672-699 limits assumed, one chain of several): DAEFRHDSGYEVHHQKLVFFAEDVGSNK
T4 sequence (P05067 672-711 limits assumed): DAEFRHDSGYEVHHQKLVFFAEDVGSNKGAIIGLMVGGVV
T3 sequence (P05067 672-711 limits assumed): as above

For the compound `Nc1ncnc2c1ncn2[C@@H]1O[C@H](COP(=O)(O)OP(=O)(O)OP(=O)(O)O)[C@@H](O)[C@H]1O` [ATP, adenosine triphosphate], the IC50 in [1] (Cortical neurone, Table 2, neuroprotection of primary neurons exposed to FeSO4, read-out: IC50) was 30000 ± 2100 nM. The “Hydrolysis by TNAP” value in series [2] is given as 100%. Moreover, the “log K of Cu^2+ complex” value in series [3] is on record as 6.34. In addition, the neuronal cells maintained in series [4] (at 25 μM, 50 μM Aβ42, 48 h) stood at 45%.
For the compound `Oc1c(I)cc(Cl)c2cccnc12` [Clioquinol, 5-chloro-7-iodoquinolin-8-ol], in series [5], the “effect on Aβ28-Cu^+ 1H-NMR spectrum” value is reported as “slightly sharpened, yet, no signal pattern emerged”. Further, the “efficacy in resolubilizing aggregates relative to EDTA” value in series [6] is given as “ca. 75 % of EDTA efficacy”. In series [7], the “dH (particle size) of Aβ40-Cu^2+ after chelator” value came out at 127 nm.
For `Nc1ncnc2c1ncn2[C@@H]1O[C@H](COP(=O)(O)OP(=O)(O)OP(O)(O)=S)[C@@H](O)[C@H]1O` [ATP-γ-S, Adenosine 5′-[γ-thio]-triphosphate], the “dH (particle size) of Aβ40-Cu^2+ after chelator” value in series [7] is 110 nm. The IC50 in series [1] (setting [14]) was 10 ± 8 nM; in series [1] (setting [15]), 1000 nM; in series [1] (setting [16]), 10 nM; in series [1] (primary cortical neuronal cells, read-out: IC50 protection from damage caused by FeSO4), 10 nM; in series [8], 180 nM; in series [4] (50 μM Aβ42, 48 h, read-out: concentration that maintained 50% of neuronal cells), 800 nM. Further, the IC50 in [4] (primary neurons, read-out: IC50 protection from Aβ42 insult) worked out at 800 nM. The compound also had a protection in series [1] (24 h) of 100%. Also, the “times more active than ATP” value in series [9] is recorded as 100. In [9], the “times more active than Trolox” value is 20.
As for `Nc1nc2c(ncn2[C@@H]2O[C@H](COP(=O)(O)OP(O)(O)=S)[C@@H](O)[C@H]2O)c(=O)[nH]1` [GDP-β-S, guanosine 5′-[β-thio]diphosphate], the “effect on Aβ28-Cu^+ 1H-NMR spectrum” value in [5] was “partial recovery of Aβ28 aromatic signals”. For the same compound, the IC50 in series [1] (setting [14]) amounted to 80 ± 3 nM; in series [1] (setting [15]) it was 4000 nM; in series [1] (setting [16]), 8 nM; in series [8] it was 10000 nM. The same compound registered a protection in series [1] (24 h) of 130%. Further, in [10], the “fold more stable in PC12 cells than parent nucleotide (GDP, ADP)” value turned out to be 4.5 fold.
With `O=C(O)CN(CCN(CC(=O)O)CC(=O)O)CC(=O)O` [EDTA, ethylenediamine tetraacetic acid], the concentration for an effect of 90% (IC90) came out at 110 ± 7 µM in series [11] and 98 ± 1 µM in series [12]. Further, in [3], the “log K of Cu^2+ complex” value is 18.8. Moreover, the “log K of Zn^2+ complex” value in series [13] was 16.5.
